Several values for one entry are separate records, joined by “and”; a condition that tells them apart may be missing. Identical values can stand only once.
Assays:
K-562 = test: NCI-60 one-dose SRB screen (Leukemia); type: cell-based; conditions: Homo sapiens, K562, single dose 10 µM, 48 h, read-out: Growth inhibition percent (GI %)
Description: (§1) The National Cancer Institute (NCI) Developmental Therapeutic Program (www.dtp.nci.nih.gov) selected the 20 novel synthesized compounds 4a-e, 5a-e, 6a-c, 9a-e, 10 and 11 to test for their anticancer activity at a single dose of 10 µM using SRB assay. […] Supplementary Data S3; Table S1 presents the detailed screening results of the most promising compounds. The preliminary screening’s detailed results for the remaining compounds are elucidated in the (Supplementary Data S3; Table S2).
(§2) The guidelines of the Drug Evaluation Branch’s protocol at the NCI in Bethesda served as the basis for the in vitro anticancer screening assays. at one dose 10 µM against a panel of 60 cancer cell lines. The human tumor cell lines used belonged to nine panels: leukemia, melanoma, lung, colon, CNS, ovarian, renal, prostate and breast cancers using the sulforhodamine B (SRB) assay in a 48 h drug exposure protocol.

RPMI-8226 = test: NCI-60 one-dose SRB screen (Leukemia); type: cell-based; conditions: Homo sapiens, single dose 10 µM, 48 h, read-out: Growth inhibition percent (GI %)
Description: as §1, §2

CCRF-CEM = test: NCI-60 one-dose SRB screen (Leukemia); type: cell-based; conditions: Homo sapiens, single dose 10 µM, 48 h, read-out: Growth inhibition percent (GI %)
Description: as §1, §2

MOLT-4 = test: NCI-60 one-dose SRB screen (Leukemia); type: cell-based; conditions: Homo sapiens, single dose 10 µM, 48 h, read-out: Growth inhibition percent (GI %)
Description: as §1, §2

HL-60(TB) = test: NCI-60 one-dose SRB screen (Leukemia); type: cell-based; conditions: Homo sapiens, single dose 10 µM, 48 h, read-out: Growth inhibition percent (GI %)
Description: as §1, §2

SR = test: NCI-60 one-dose SRB screen (Leukemia); type: cell-based; conditions: Homo sapiens, single dose 10 µM, 48 h, read-out: Growth inhibition percent (GI %)
Description: as §1, §2

SK-MEL-2 = test: NCI-60 one-dose SRB screen (Melanoma); type: cell-based; conditions: Homo sapiens, single dose 10 µM, 48 h, read-out: Growth inhibition percent (GI %)
Description: as §1, §2

M14 = test: NCI-60 one-dose SRB screen (Melanoma); type: cell-based; conditions: Homo sapiens, single dose 10 µM, 48 h, read-out: Growth inhibition percent (GI %)
Description: as §1, §2

UACC-257 = test: NCI-60 one-dose SRB screen (Melanoma); type: cell-based; conditions: Homo sapiens, single dose 10 µM, 48 h, read-out: Growth inhibition percent (GI %)
Description: as §1, §2

UACC-62 = test: NCI-60 one-dose SRB screen (Melanoma); type: cell-based; conditions: Homo sapiens, single dose 10 µM, 48 h, read-out: Growth inhibition percent (GI %)
Description: as §1, §2

SK-MEL-28 = test: NCI-60 one-dose SRB screen (Melanoma); type: cell-based; conditions: Homo sapiens, single dose 10 µM, 48 h, read-out: Growth inhibition percent (GI %)
Description: as §1, §2

MALME-3M = test: NCI-60 one-dose SRB screen (Melanoma); type: cell-based; conditions: Homo sapiens, single dose 10 µM, 48 h, read-out: Growth inhibition percent (GI %)
Description: as §1, §2

MDA-MB-435 = test: NCI-60 one-dose SRB screen (Melanoma); type: cell-based; conditions: Homo sapiens, single dose 10 µM, 48 h, read-out: Growth inhibition percent (GI %)
Description: as §1, §2

SK-MEL-5 = test: NCI-60 one-dose SRB screen (Melanoma); type: cell-based; conditions: Homo sapiens, single dose 10 µM, 48 h, read-out: Growth inhibition percent (GI %)
Description: as §1, §2

LOX IMVI = test: NCI-60 one-dose SRB screen (Melanoma); type: cell-based; conditions: Homo sapiens, single dose 10 µM, 48 h, read-out: Growth inhibition percent (GI %)
Description: as §1, §2

hCA XII = hCA XII (Homo sapiens, UniProt O43570); test: CA inhibitory activity, spectrophotometric p-NPA assay; type: biochemical; conditions: p-NPA substrate, pH 7.5, 25 °C, triplicate; read-out: IC50 (µM) ± SD hCA XII
Chain of hCA XII (O43570 25-354): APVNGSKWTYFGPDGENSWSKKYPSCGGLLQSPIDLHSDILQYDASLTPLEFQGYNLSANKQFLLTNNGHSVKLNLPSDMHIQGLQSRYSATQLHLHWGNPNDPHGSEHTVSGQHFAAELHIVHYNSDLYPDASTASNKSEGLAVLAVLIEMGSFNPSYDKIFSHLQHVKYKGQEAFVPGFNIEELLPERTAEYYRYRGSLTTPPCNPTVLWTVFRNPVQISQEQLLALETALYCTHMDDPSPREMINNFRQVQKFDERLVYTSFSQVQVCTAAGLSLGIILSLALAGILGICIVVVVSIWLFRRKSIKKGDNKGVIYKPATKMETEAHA

HT29 = test: NCI-60 one-dose SRB screen (Colon Cancer); type: cell-based; conditions: Homo sapiens, HT-29, single dose 10 µM, 48 h, read-out: Growth inhibition percent (GI %)
Description: as §1, §2

KM12 = test: NCI-60 one-dose SRB screen (Colon Cancer); type: cell-based; conditions: Homo sapiens, single dose 10 µM, 48 h, read-out: Growth inhibition percent (GI %)
Description: as §1, §2

HCC-2998 = test: NCI-60 one-dose SRB screen (Colon Cancer); type: cell-based; conditions: Homo sapiens, single dose 10 µM, 48 h, read-out: Growth inhibition percent (GI %)
Description: as §1, §2

SW-620 = test: NCI-60 one-dose SRB screen (Colon Cancer); type: cell-based; conditions: Homo sapiens, single dose 10 µM, 48 h, read-out: Growth inhibition percent (GI %)
Description: as §1, §2

COLO 205 = test: NCI-60 one-dose SRB screen (Colon Cancer); type: cell-based; conditions: Homo sapiens, single dose 10 µM, 48 h, read-out: Growth inhibition percent (GI %)
Description: as §1, §2

HCT-116 = test: NCI-60 one-dose SRB screen (Colon Cancer); type: cell-based; conditions: Homo sapiens, single dose 10 µM, 48 h, read-out: Growth inhibition percent (GI %)
Description: as §1, §2

HCT-15 = test: NCI-60 one-dose SRB screen (Colon Cancer); type: cell-based; conditions: Homo sapiens, single dose 10 µM, 48 h, read-out: Growth inhibition percent (GI %)
Description: as §1, §2

DU-145 = test: NCI-60 one-dose SRB screen (Prostate Cancer); type: cell-based; conditions: Homo sapiens, single dose 10 µM, 48 h, read-out: Growth inhibition percent (GI %)
Description: as §1, §2

PC-3 = test: NCI-60 one-dose SRB screen (Prostate Cancer); type: cell-based; conditions: Homo sapiens, single dose 10 µM, 48 h, read-out: Growth inhibition percent (GI %)
Description: as §1, §2

NCI-H226 = test: NCI-60 one-dose SRB screen (Non-Small Cell Lung Cancer); type: cell-based; conditions: Homo sapiens, single dose 10 µM, 48 h, read-out: Growth inhibition percent (GI %)
Description: as §1, §2

A549/ATCC = test: as above; type: cell-based; conditions: Homo sapiens, single dose 10 µM, 48 h, read-out: Growth inhibition percent (GI %)
Description: as §1, §2

NCI-H460 = test: as above; type: cell-based; conditions: Homo sapiens, single dose 10 µM, 48 h, read-out: Growth inhibition percent (GI %)
Description: as §1, §2

EKVX = test: as above; type: cell-based; conditions: Homo sapiens, single dose 10 µM, 48 h, read-out: Growth inhibition percent (GI %)
Description: as §1, §2

NCI-H23 = test: as above; type: cell-based; conditions: Homo sapiens, single dose 10 µM, 48 h, read-out: Growth inhibition percent (GI %)
Description: as §1, §2

CCOC(=O)c1ccc(NC(=O)COC(=O)c2cn(-c3ccc(S(N)(=O)=O)cc3)nc2-c2ccccc2)cc1 [Compound 5a, 2-[(4-(Ethoxycarbonyl)phenyl)amino]-2-oxoethyl 3-phenyl-1-(4-sulfamoylphenyl)-1H-pyrazole-4-carboxylate]
inhibition at 10 µM (K-562): 78.7%
inhibition at 10 µM (RPMI-8226): 86.8%
inhibition at 10 µM (CCRF-CEM): 82%
inhibition at 10 µM (MOLT-4): 89%
inhibition at 10 µM (HL-60(TB)): 92.1%
inhibition at 10 µM (SR): 82.1%
inhibition at 10 µM (SK-MEL-2): 50.8%
inhibition at 10 µM (M14): 63.5%
inhibition at 10 µM (UACC-257): 48%
inhibition at 10 µM (UACC-62): 55.2%
inhibition at 10 µM (SK-MEL-28): 54.5%
inhibition at 10 µM (MALME-3M): 79.1%
inhibition at 10 µM (MDA-MB-435): 45.1%
inhibition at 10 µM (SK-MEL-5): 70.1%
inhibition at 10 µM (LOX IMVI): 69.2%
IC50 (hCA XII): 0.39 µM and 0.395 µM
inhibition at 10 µM (HT29): 78.8%
inhibition at 10 µM (KM12): 73.6%
inhibition at 10 µM (HCC-2998): 63.9%
inhibition at 10 µM (SW-620): 47.1%
inhibition at 10 µM (COLO 205): 39.1%
inhibition at 10 µM (HCT-116): 75.8%
inhibition at 10 µM (HCT-15): 72.7%
inhibition at 10 µM (DU-145): 29.1%
inhibition at 10 µM (PC-3): 68.1%
inhibition at 10 µM (NCI-H226): 54.7%
inhibition at 10 µM (A549/ATCC): 60.3%
inhibition at 10 µM (NCI-H460): 63.5%
inhibition at 10 µM (EKVX): 49%
inhibition at 10 µM (NCI-H23): 51.7%

Source: PMC12454493, “Insight on novel sulfamoylphenyl pyrazole derivatives as anticancer carbonic anhydrase inhibitors” (Molecular Diversity, 2024)
